Each structure is given as a SMILES string.

For one assay, the target named is KRas G12D mutant protein (Homo sapiens (Human), UniProt P01116, G12D). The assay is described as follows: Ras GTP binding domain inhibition assay (labeled GTP). The settings on record: at 20 μM; read-out: KRas G12D % Inh. As to the method:
The following method was developed as specific assay for KRas G12D mutant protein.
Buffer-I: • 50 mM Tris, pH 7.5 • 150 mM NaCl (optional) • 1 mM MgCl2 • 1 mM DTT. • KRas G12D mutant protein was expressed as a His-tagged protein. Purified His-KRas G12D protein was diluted in buffer-I to a final concentration of 3-10 μg/ml. • 200 μl of the diluted His-KRas G12D protein was added to a nickel coated 96 well plate and incubated overnight at 4° C. • The next day, wells were washed 3× in 200 μl of Buffer-I. • Then 200 μl of Buffer-I were added to each well in the presence of 1% DMSO. • Tested compounds were added to the protein-coated wells at a concentration of 20 μM, and incubated for 3 hours at room temperature. While performing IC50 measurements a serial dilution of all tested concentrations was prepared.
Then 22 μl of Cy3-GTP or Cy5-GTP was added to each well. The labeled GTP was incubated for 45 min. at room temperature. • Following GTP incubation, wells were washed 3× in Buffer-I, and 200 μl of Buffer-I were added to each well. • Following washes, the amount of bound labeled-GTP was measured with an Eppendorf AF2200 plate reader.

The target of assay [1] is KRas G12D/Q61H double mutant (Homo sapiens (Human), UniProt P01116, G12D/Q61H). The description is as above. The conditions noted are these: at 20 μM; read-out: KRas G12D Q61H % Inh. The essentials: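 His-tagged KRas protein (3-10 μg/ml) was captured overnight at 4° C on nickel-coated wells in 50 mM Tris pH 7.5, 1 mM MgCl2, 1 mM DTT. Bound labeled GTP was read by fluorescence after washing.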

The next assay deals with Rac-1 (Homo sapiens (Human), UniProt P63000). The assay is described as follows: Rac inhibition assay (labeled GTP). The settings on record: read-out: Rac-1 % Inh. Type of assay: binding.
The target in another assay is Rho-A (Homo sapiens (Human), UniProt P61586). The assay is described as follows: Rho inhibition assay (labeled GTP). The conditions noted are these: read-out: Rho-A % Inh. It is filed as binding.
Chain of Rho-A (P61586 whole entry): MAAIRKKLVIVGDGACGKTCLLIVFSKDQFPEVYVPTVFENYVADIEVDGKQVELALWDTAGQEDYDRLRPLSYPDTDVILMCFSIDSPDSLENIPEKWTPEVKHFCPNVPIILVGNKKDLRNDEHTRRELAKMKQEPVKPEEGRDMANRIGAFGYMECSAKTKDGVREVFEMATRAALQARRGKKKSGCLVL

Chain of KRas G12D mutant protein (P01116-2 other isoform, or with tags, fused parts or gaps G12D): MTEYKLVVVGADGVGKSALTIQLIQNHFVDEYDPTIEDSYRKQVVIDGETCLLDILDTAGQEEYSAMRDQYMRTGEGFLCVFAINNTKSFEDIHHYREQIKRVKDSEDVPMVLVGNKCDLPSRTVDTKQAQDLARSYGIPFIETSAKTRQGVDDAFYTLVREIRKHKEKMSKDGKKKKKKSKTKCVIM
Chain of KRas G12D/Q61H double mutant (P01116-2 other isoform, or with tags, fused parts or gaps G12D/Q61H): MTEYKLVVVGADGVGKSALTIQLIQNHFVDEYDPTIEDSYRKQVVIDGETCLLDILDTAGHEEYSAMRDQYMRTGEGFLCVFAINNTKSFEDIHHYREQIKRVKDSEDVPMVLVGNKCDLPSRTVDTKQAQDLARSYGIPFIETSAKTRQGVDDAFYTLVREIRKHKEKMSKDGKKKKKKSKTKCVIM

With `O=C(c1cc2nc(-c3ccccn3)nc(O)c2s1)N1CCN(c2ccccc2)CC1` [drawing 3713], the inhibition at 20 µM on KRas G12D mutant protein lay in the range of 51 to 75%; in assay [1] it was 51 to 75%; on Rac-1, 76 to 100%; at Rho-A, 76 to 100%.
In the case of `OCC1(c2ccc(-c3nc(-c4ccccn4)nc(O)c3Oc3ccccc3)cc2)CC1` [drawing 3852], the inhibition at 20 µM is 25 to 50% at KRas G12D mutant protein, 51 to 75% in assay [1], 51 to 75% on Rac-1 and 76 to 100% on Rho-A.
As for `Cn1nnc2ccc(-c3csc4c(O)nc(-c5ccccn5)nc34)cc21` [drawing 3733], the inhibition at 20 µM at KRas G12D mutant protein fell in the range of 51 to 75%; in assay [1] it was 51 to 75%; at Rac-1 it was 76 to 100%; on Rho-A, 51 to 75%.
With `O=C(COCc1ccnc(O)c1)Nc1nc(-c2ccccn2)nc2sccc12` [drawing 3729], the inhibition at 20 µM lay within 25 to 50% on KRas G12D mutant protein, 51 to 75% in assay [1], 51 to 75% at Rac-1 and 51 to 75% at Rho-A.
Consider `Cc1sc2c(O)nc(-c3ccccn3)nc2c1-c1ccncc1` [drawing 3816], for which the inhibition at 20 µM at KRas G12D mutant protein lay within 51 to 75%; in assay [1], 51 to 75%; at Rac-1 it was 51 to 75%; on Rho-A, 25 to 50%.
For `Oc1nc(-c2ccccn2)nc2c(-c3ccsc3)csc12` [drawing 3747], the inhibition at 20 µM on KRas G12D mutant protein fell in the range of 51 to 75%; in assay [1] it was 25 to 50%; at Rac-1 it was 76 to 100%; at Rho-A, 51 to 75%.
On to `O=C(c1csc2c(O)nc(-c3ccccn3)nc12)N1CCC(c2cccc(O)c2)C1` (stereo not shown) [drawing 3712], for which the inhibition at 20 µM (at KRas G12D mutant protein; in assay [1]; at Rac-1; on Rho-A) was 76 to 100% throughout.
Regarding `O=C(CCc1nn[nH]n1)Nc1nc(-c2ccccn2)nc2sccc12` [drawing 3762], the inhibition at 20 µM on KRas G12D mutant protein is 51 to 75%; in assay [1], 51 to 75%; on Rac-1 it was 76 to 100%; on Rho-A, 76 to 100%.
In the case of `O=C(c1csc2c(O)nc(-c3ccccn3)nc12)N1CC2CC1CN2c1ccccc1` (stereo not shown) [drawing 3710], the inhibition at 20 µM was 51 to 75% on KRas G12D mutant protein, 76 to 100% in assay [1], 76 to 100% at Rac-1 and 76 to 100% at Rho-A.
Regarding `Oc1nc(-c2ccccn2)nc2c(-c3ccccc3F)csc12` [drawing 3740], the inhibition at 20 µM on KRas G12D mutant protein was in the range of 51 to 75%; in assay [1] it was 51 to 75%; at Rac-1, 76 to 100%; on Rho-A, 76 to 100%.
Turning to `Cc1cc2nc(-c3ccccn3)nc(N)c2s1` [drawing 3708], the inhibition at 20 µM at KRas G12D mutant protein was in the range of 51 to 75%; in assay [1], 51 to 75%; at Rac-1, 76 to 100%; at Rho-A, 76 to 100%.
For the molecule `CN1CCN(c2nc(-c3ccccn3)nc3scc(C(=O)NCCc4cnc(O)nc4)c23)CC1` [drawing 3771], the inhibition at 20 µM on KRas G12D mutant protein is 51 to 75%; in assay [1] it was 25 to 50%; at Rac-1, 51 to 75%; at Rho-A it was 51 to 75%.
For `O=C(O)c1cc2nc(-c3ccccn3)nc(O)c2s1` [drawing 3722], the inhibition at 20 µM on KRas G12D mutant protein was in the range of 51 to 75%; in assay [1], 51 to 75%; at Rac-1, 76 to 100%; on Rho-A, 76 to 100%.
As to `O=C(CCn1ccnc1)Nc1nc(-c2ccccn2)nc2sccc12` [drawing 3761], the inhibition at 20 µM was 76 to 100% on KRas G12D mutant protein, 51 to 75% in assay [1], 76 to 100% at Rac-1 and 76 to 100% at Rho-A.
For the molecule `Cc1nn(C(C)C)cc1-c1csc2c(O)nc(-c3ccccn3)nc12` [drawing 3825], the inhibition at 20 µM at KRas G12D mutant protein fell in the range of 51 to 75%; in assay [1] it was 51 to 75%; on Rac-1, 76 to 100%; at Rho-A it was 76 to 100%.
As for `COc1ccc(-c2csc3c(O)nc(-c4ccccn4)nc23)c(C)c1` [drawing 3753], the inhibition at 20 µM lay in the range of 51 to 75% on KRas G12D mutant protein, 51 to 75% in assay [1], 76 to 100% on Rac-1 and 76 to 100% at Rho-A.
Take `COCCNc1nc(-c2nccn2C)nc2sc(-c3ccccc3Cl)c(-c3ccccc3)c12` [drawing 3899]: the inhibition at 20 µM is 1 to 25% at KRas G12D mutant protein, 0% on Rac-1 and 25 to 50% on Rho-A.
The matching figures for `COCCCNc1nc(-c2nccn2C)nc2sc(-c3ccccc3)c(-c3ccccc3)c12` [drawing 3888]: 51 to 75%, 25 to 50% and 51 to 75%.
On the same counts, the results for `COCC(C)Nc1nc(-c2nccn2C)nc2sc(-c3ccccc3)c(-c3ccccc3)c12` (stereo not shown) [drawing 3895] are 1 to 25%, 1 to 25% and 1 to 25%.
On the same counts, the results for `Cn1ccnc1-c1nc(NCCOC2CC2)c2c(-c3ccccc3)c(-c3ccccc3)sc2n1` [drawing 3894] are 1 to 25%, 25 to 50% and 1 to 25%.
As for `CC(C)OCCNc1nc(-c2nccn2C)nc2sc(-c3ccccc3)c(-c3ccccc3)c12` [drawing 3885], the inhibition at 20 µM fell in the range of 51 to 75% on KRas G12D mutant protein, 25 to 50% on Rac-1 and 25 to 50% on Rho-A.
`Cc1sc2c(O)nc(-c3nccn3C)nc2c1-c1cccc(C(F)(F)F)c1` [drawing 3917]: the inhibition at 20 µM on KRas G12D mutant protein was 1 to 25%; at Rac-1 it was 25 to 50%; on Rho-A, 0%.
`Cn1ccnc1-c1nc(O)c2scc(-c3cccc(OC(F)(F)F)c3)c2n1` [drawing 3921]: the inhibition at 20 µM on KRas G12D mutant protein lay in the range of 51 to 75%; on Rac-1, 51 to 75%; on Rho-A it was 25 to 50%.
Consider `COCCNc1nc(-c2nccn2C)nc2sc(-c3ccc(OC)cc3)c(-c3ccccc3)c12` [drawing 3915], for which the inhibition at 20 µM was 25 to 50% at KRas G12D mutant protein, 25 to 50% on Rac-1 and 1 to 25% on Rho-A.
Take `Cn1ccnc1-c1nc(O)c2scc(-c3cccc(Cl)c3)c2n1` [drawing 3935]: the results for the inhibition at 20 µM on KRas G12D mutant protein, on Rac-1 and at Rho-A were 25 to 50%, 51 to 75% and 51 to 75%, respectively.
For `COc1ccc(-c2csc3c(O)nc(-c4nccn4C)nc23)cn1` [drawing 3931], the inhibition at 20 µM at KRas G12D mutant protein, at Rac-1 and at Rho-A was 51 to 75% in each case.
Take `Cn1cnc(-c2nc(O)c3scc(-c4cccc(OC(F)(F)F)c4)c3n2)c1` [drawing 3924]: the inhibition at 20 µM at KRas G12D mutant protein, at Rac-1 and on Rho-A was 25 to 50% in each case.
As for `COCCNc1nc(-c2nccn2C)nc2sc(C3CCOCC3)c(-c3ccccc3)c12` [drawing 3908], the inhibition at 20 µM is 51 to 75% at KRas G12D mutant protein, 76 to 100% at Rac-1 and 51 to 75% on Rho-A.
As for `Oc1nc(-c2ncccn2)nc2c(-c3cccc(C(F)(F)F)c3)csc12` [drawing 3926], the values for the inhibition at 20 µM on KRas G12D mutant protein, at Rac-1 and at Rho-A were 25 to 50%, 51 to 75% and 51 to 75%, respectively.
With `Cn1ccnc1-c1nc(O)c2scc(-c3ccccc3)c2n1` [drawing 3932], the inhibition at 20 µM at KRas G12D mutant protein is 51 to 75%; on Rac-1, 51 to 75%; at Rho-A, 25 to 50%.
As to `COCCNc1nc(-c2cn(C)cn2)nc2sc(C)c(-c3ccccc3)c12` [drawing 3903], the inhibition at 20 µM on KRas G12D mutant protein fell in the range of 25 to 50%; at Rac-1, 51 to 75%; on Rho-A it was 51 to 75%.
For `Cc1sc2c(O)nc(-c3nccn3C)nc2c1-c1ccccc1` [drawing 3912], the values for the inhibition at 20 µM on KRas G12D mutant protein, at Rac-1 and at Rho-A were 25 to 50%, 25 to 50% and 51 to 75%, respectively.
As for `Cn1ccnc1-c1nc(O)c2scc(-c3ccccc3Cl)c2n1` [drawing 3933], the results for the inhibition at 20 µM at KRas G12D mutant protein, at Rac-1 and at Rho-A were 25 to 50%, 51 to 75% and 51 to 75%, respectively.
Turning to `COCCNc1nc(-c2nccn2C)nc2sc(-c3ccccc3)c(-c3ccccn3)c12` [drawing 3940], the inhibition at 20 µM at KRas G12D mutant protein was 25 to 50%; at Rac-1 it was 25 to 50%; at Rho-A, 51 to 75%.
Take `Cn1ccnc1-c1nc(O)c2scc(-c3ccc(F)cc3F)c2n1` [drawing 3934]: the inhibition at 20 µM on KRas G12D mutant protein is 25 to 50%; at Rac-1 it was 51 to 75%; at Rho-A it was 25 to 50%.
